{"source": "patent US20250344698A1", "about": "“A METHOD OF CONTROLLING WEEDS” (SYNGENTA CROP PROTECTION AG, priority 2022, published 2025)", "system": "A. tuberculatus, about 60-70% of which contain the ΔG210 mutation", "assay": "Field trial, Illinois USA, visual % weed control", "assay_type": "in vivo, Amaranthus tuberculatus", "conditions": "visually assessed 14 days after application", "data": [{"smiles": "COC(=O)CCNC(=O)C(C)Sc1cc(-n2c(=O)cc(C(F)(F)F)n(C)c2=O)c(F)cc1Cl", "note": "(stereo not drawn) [Tiafenacil]", "values": [{"measurement": "Control (%)", "setting": "use rate 50 g ai/ha", "result": 33, "unit": "%"}, {"measurement": "Control (%)", "setting": "use rate 100 g ai/ha", "result": 30, "unit": "%"}, {"measurement": "Control (%)", "setting": "use rate 150 g ai/ha", "result": 33, "unit": "%"}]}]}
